Experiments:
wildtype TRKA = molecular target: T1, wildtype TRKA (Homo sapiens, UniProt P04629); assay: Reaction Biology HotSpot Kinase assay (direct enzyme phosphorylation), TRKA; assay type: biochemical; conditions: 33P-ATP, 120 minutes at room temperature, filter-binding
T1 construct: purchased Reaction Biology
Protocol: (§1) Direct enzyme phosphorylation assay. The Reaction Biology HotSpot Kinase assay was used to screen the present invention against a panel of TRKA, TRKB, and TRKC kinases. For assays of all kinases, the TRK enzyme was prepared in base reaction buffer (20 mM Hepes (pH 7.5), 10 mM MgCl2, 1 mM EGTA, 0.02% Brij35, 0.02 mg/ml BSA, 0.1 mM Na3VO4, 2 mM DTT, 1% DMSO). The reaction was initiated by the addition of 33P-ATP (10 μCi/μL) into the mixture. The reaction mixture was incubated for 120 minutes at room temperature. Radioactivity was detected by filter-binding method, and kinase activity expressed as the percent remaining kinase activity in test samples compared to vehicle reactions. IC50 values and curve fitting were obtained using Prism (GraphPad Software). The activity of the besylate salt of the present invention was determined using a direct enzymatic Reaction Biology HotSpot Kinase assay. All IC50 values are presented in nanomolar concentration. In the direct enzymatic measurement assay, the IC50 of the besylate salt of the current invention against the various TRK kinases is shown in Table 1.

wildtype TRKB = molecular target: T2, wildtype TRKB (Homo sapiens, UniProt Q16620); assay: Reaction Biology HotSpot Kinase assay (direct enzyme phosphorylation), TRKB; assay type: biochemical; conditions: 33P-ATP, 120 minutes at room temperature, filter-binding
T2 construct: purchased Reaction Biology
T2 sequence (Q16620 32-822): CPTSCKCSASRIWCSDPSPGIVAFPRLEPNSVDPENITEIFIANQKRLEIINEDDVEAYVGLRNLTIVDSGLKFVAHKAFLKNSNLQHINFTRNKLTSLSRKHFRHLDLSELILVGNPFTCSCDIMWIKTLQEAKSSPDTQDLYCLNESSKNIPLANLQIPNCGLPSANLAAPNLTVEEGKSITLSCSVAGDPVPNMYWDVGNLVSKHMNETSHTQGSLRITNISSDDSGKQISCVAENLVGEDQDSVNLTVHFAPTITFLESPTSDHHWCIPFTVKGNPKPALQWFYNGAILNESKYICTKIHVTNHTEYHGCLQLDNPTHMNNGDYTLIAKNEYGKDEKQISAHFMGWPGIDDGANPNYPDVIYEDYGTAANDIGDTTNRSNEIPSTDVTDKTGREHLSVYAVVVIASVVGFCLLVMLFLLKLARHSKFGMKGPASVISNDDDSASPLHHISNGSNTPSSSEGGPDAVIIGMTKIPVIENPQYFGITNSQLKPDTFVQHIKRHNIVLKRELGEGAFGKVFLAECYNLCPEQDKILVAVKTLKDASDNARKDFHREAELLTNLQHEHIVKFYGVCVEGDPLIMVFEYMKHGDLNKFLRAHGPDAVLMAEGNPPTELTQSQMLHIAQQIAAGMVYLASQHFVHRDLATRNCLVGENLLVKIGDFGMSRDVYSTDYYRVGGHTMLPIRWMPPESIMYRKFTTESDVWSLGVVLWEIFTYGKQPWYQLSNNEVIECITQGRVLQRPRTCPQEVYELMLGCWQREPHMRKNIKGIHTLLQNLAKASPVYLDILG
Protocol: as §1

wildtype TRKC = molecular target: T3, wildtype TRKC (Homo sapiens, UniProt Q16288); assay: Reaction Biology HotSpot Kinase assay (direct enzyme phosphorylation), TRKC; assay type: biochemical; conditions: 33P-ATP, 120 minutes at room temperature, filter-binding
T3 construct: purchased Reaction Biology
T3 sequence (Q16288 32-839): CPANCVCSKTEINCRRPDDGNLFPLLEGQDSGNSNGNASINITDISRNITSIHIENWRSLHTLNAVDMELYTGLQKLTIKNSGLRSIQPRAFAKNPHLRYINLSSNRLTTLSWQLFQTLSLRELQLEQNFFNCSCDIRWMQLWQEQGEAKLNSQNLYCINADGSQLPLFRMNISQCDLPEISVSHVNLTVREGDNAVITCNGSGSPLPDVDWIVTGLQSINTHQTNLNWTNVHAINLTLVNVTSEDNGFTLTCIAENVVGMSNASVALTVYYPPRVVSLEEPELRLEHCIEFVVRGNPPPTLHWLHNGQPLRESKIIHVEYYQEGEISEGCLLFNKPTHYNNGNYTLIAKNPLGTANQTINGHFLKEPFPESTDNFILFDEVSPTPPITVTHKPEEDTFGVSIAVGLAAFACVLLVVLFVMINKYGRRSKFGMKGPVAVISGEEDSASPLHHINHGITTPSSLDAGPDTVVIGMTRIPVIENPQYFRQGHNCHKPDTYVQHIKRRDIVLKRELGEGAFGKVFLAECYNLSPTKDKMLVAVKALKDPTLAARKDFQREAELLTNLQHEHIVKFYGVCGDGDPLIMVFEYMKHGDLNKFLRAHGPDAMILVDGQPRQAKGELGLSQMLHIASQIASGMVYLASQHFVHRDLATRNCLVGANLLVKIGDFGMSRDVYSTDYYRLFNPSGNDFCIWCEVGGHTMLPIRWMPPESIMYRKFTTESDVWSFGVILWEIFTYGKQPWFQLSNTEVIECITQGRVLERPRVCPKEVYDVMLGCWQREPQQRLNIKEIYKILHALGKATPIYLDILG
Protocol: as §1

[1] = osteoarthritis patients, lowered dose with risk minimization strategy; 22 patients; cited from earlier work

T1 sequence (P04629 33-796): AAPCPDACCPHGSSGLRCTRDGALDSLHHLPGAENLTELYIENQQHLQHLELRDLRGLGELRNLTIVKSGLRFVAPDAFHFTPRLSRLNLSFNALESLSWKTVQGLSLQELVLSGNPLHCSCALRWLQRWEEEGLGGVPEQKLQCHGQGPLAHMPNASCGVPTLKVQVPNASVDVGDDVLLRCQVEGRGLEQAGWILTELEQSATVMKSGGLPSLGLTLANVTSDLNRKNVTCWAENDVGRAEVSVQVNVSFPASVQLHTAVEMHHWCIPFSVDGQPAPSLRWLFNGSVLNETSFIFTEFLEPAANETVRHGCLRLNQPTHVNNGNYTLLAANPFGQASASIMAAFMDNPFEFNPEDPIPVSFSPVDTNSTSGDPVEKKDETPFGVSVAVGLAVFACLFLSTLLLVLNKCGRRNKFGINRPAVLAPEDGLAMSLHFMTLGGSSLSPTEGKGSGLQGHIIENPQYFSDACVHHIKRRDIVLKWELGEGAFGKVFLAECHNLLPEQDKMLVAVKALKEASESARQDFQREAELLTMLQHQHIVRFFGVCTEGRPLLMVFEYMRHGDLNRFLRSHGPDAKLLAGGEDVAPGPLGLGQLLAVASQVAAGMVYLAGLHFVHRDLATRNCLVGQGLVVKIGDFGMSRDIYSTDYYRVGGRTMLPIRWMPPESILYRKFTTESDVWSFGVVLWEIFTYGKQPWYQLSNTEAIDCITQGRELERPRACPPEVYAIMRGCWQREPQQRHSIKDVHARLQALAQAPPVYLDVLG

| IC50 (wildtype TRKA) [nM] | IC50 (wildtype TRKB) [nM] | IC50 (wildtype TRKC) [nM] | Compound | patients treated who required knee or joint replacement [1] [%] |
| --- | --- | --- | --- | --- |
| 31 | 77.7 | 1.68 | CC1(COc2ccc3c(c2)ncn3-c2ccc3cccc(N4CCC(N)CC4)c3n2)COC1 [crenolanib besylate] | – |
| – | – | – | tanezumab | 9.4 |
